Reference: patent US20200087248A1, “Fluoroallylamine Derivative And Use Thereof” (SICHUAN KELUN-BIOTECH BIOPHARMACEUTICAL CO., LTD., priority 2017, published 2020)
Where a name gives a salt, the structure may show the parent alone.

How the values were obtained:
VAP-1 = biological target: T1, VAP-1 (Homo sapiens, UniProt Q16853); experiment: Inhibition of the enzymatic activity of VAP-1 in vitro (Amplex Red); format: biochemical; conditions: VAP-1 protein about 20 nM, 10 min pre-incubation, benzylamine substrate; read-out: IC50, inhibition against the enzymatic activity of VAP-1
T1 construct: purchased R&D Systems
T1 sequence (Q16853 1-763): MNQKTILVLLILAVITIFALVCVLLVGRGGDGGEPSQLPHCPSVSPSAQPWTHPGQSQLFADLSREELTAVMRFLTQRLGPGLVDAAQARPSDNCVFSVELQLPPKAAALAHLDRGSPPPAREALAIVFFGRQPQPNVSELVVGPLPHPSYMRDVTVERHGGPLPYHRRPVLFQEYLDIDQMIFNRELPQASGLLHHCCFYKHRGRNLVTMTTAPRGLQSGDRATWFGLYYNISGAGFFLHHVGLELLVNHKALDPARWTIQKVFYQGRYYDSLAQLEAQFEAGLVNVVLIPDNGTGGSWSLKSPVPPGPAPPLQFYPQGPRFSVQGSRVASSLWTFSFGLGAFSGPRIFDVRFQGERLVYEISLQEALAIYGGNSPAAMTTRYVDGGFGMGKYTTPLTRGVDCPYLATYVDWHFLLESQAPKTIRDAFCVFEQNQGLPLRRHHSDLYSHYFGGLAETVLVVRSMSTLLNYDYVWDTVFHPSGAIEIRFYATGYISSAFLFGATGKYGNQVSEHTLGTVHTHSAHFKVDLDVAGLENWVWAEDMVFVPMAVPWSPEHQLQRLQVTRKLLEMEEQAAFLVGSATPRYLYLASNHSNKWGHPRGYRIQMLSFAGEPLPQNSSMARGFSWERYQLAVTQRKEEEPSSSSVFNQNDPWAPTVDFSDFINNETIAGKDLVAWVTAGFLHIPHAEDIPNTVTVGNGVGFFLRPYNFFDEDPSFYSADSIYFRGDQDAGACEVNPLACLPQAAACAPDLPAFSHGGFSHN
Protocol: Inhibition Experiment Against the Enzymatic Activity of VAP-1(Vascular Adhesion Protein 1) in vitro
Test kit: Amplex® Red Monoamine Oxidase Assay, Manufacturer: ThermoFisher
Reaction buffer solution: 50 mM PBS, pH 7.4
Enzyme: VAP-1, Manufacturer: R&D Systems
VAP-1 protein (about 20 nM) and different concentrations of the test compound were pre-incubated at room temperature for 10 minutes, followed by an addition of […] benzylamine hydrochloride, 1 U/mL HRP and 200 μM Amplex Red reagent according to the specification of the test kit to start the reaction. The reaction plate was placed in the enzyme marker, and in kinetic mode, fluorescence signals were measured at Ex/Em=540/590 nm. The relative inhibition activity of each concentration group was calculated, wherein the ratio (slope) of fluorescence signal to reaction time in the linear range is the reaction rate, the vehicle group (DMSO) is the negative control, and the reaction buffer solution group (without enzymes and the compounds) is the blank control. The half inhibition concentration (IC50) of the compound was calculated according to four-parameter model fitting curve.

hERG = biological target: T2, hERG (Homo sapiens, UniProt Q12809); experiment: hERG fluorescence polarization inhibition experiment; conditions: hERG cell membrane, 25° C. 2 hours, read-out: hERG (IC50 range, competitive binding vs tracer)
T2 construct: purchased ThermoFisher; host or cells: hERG cell membrane supplied with the kit
T2 sequence (Q12809 whole entry): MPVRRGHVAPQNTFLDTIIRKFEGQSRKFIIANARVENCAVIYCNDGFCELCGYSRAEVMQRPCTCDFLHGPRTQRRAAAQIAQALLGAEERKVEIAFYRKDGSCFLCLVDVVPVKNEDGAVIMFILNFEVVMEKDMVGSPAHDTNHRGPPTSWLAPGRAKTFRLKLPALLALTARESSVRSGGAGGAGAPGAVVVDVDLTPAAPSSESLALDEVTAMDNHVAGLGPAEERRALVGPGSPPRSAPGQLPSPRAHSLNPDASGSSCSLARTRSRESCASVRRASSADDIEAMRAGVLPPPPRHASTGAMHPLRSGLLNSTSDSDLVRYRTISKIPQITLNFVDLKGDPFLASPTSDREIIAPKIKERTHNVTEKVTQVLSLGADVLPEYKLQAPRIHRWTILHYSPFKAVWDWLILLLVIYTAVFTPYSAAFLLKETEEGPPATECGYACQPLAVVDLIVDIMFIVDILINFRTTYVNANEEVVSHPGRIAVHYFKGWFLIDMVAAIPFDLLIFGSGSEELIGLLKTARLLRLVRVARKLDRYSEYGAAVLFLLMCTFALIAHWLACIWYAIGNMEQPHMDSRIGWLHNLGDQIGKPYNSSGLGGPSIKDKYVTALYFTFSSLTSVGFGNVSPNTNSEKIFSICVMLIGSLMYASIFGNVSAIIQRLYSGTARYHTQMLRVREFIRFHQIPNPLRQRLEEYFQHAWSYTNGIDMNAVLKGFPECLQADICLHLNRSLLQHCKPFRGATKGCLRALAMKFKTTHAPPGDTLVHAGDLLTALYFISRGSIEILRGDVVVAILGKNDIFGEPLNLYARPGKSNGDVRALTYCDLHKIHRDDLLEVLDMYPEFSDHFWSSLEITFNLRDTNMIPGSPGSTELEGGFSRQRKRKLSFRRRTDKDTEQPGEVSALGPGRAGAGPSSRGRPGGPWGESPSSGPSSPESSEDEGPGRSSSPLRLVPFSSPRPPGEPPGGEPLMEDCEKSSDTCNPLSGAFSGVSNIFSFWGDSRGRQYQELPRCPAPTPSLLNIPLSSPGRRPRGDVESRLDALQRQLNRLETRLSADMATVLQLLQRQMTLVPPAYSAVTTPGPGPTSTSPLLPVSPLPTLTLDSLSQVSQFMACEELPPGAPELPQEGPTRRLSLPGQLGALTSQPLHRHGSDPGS
Protocol: hERG (Ether-a-go-go-related Gene Potassium Channel) Inhibition Experiment
Reagent: Predictor™ hERG Fluorescence Polarization Assay Kit, Manufacturer: ThermoFisher
The above test kit was used to evaluate the potential of the compound for inducing heart QT prolongation. According to the method as indicated in the specification of the test kit, the test compound, the positive control (E4031) and negative control (Experimental buffer solution) in the kit were added to a microwell plate containing hERG cell membrane, and then a tracer having high affinity to hERG was added. The microwell plate was then incubated at 25° C. for 2 hours, a BMG PHAREStar polyfunctional enzyme marker was used to test the variations in the fluorescent polarization value. By calculating the percent inhibition rates (%) at different concentrations, the range of the half inhibition concentration (IC50) was determined:
Percent inhibition rate (%)=(1-(mP of the test compound-mP of 30 μM E4031)/(mP of experimental buffer solution-mP of 30 μM E4031))*100.

Row | IC50 (VAP-1) | Compound | IC50 (hERG)
1 | 12.9 ± 4.4 nM | NC/C(=C\F)COc1ccc(C(=O)N2CCC(c3ccccc3)CC2)cc1 [TM44-E, (E)-(4-((2-aminomethyl-3-fluoroallyl)oxy)phenyl)-(4-phenylpiperidine-1-yl) methanone trifluoroacetate] | 
2 | 11.5 ± 1.3 nM | Cc1ccc(N(C)C(=O)c2ccc(OCC(=CF)CN)cc2)cc1 [TM67, N-methyl-N-p-methylphenyl-4-((2-aminomethyl-3-fluoroallyl)oxy)-benzamide trifluoroacetate] | > 30000 nM
3 | 0.5 nM | NCC(=CF)COc1ccc(C(=O)Nc2ccccc2)cc1 [TM1, N-phenyl-4-((2-aminomethyl-3-fluoroallyl)oxy)-benzamide trifluoroacetate] | > 10000 nM
4 | 4.1 ± 0.7 nM | NC/C(=C\F)COc1ccc(C(=O)Nc2ccc(F)cc2)cc1Cl [TM65-E, (E)-N-(4-fluorophenyl)-4-((2-aminomethyl-3-fluoroallyl)oxy)-3-chloro-benzamide trifluoroacetate] | 
5 | 3.2 ± 0.2 nM | NC/C(=C\F)COc1ccc(-c2nc3ccc(Cl)cc3s2)cc1F [TM74-E, (E)-2-(4-(6-chloro-benzothiazol-2-yl)-2-fluorophenoxymethyl)-3-fluoroallylamine trifluoroacetate trifluoroacetate] | 
6 | 1.8 ± 0.2 nM | CN(C)c1cccc(NC(=O)c2ccc(OCC(=CF)CN)cc2)c1 [TM62, N-(3-dimethylaminophenyl)-4-(2-aminomethyl-3-fluoroallyloxy)-benzamide trifluoroacetate] | > 30000 nM
7 | 1.7 ± 0.3 nM | NC/C(=C/F)COc1ccc(C(=O)Nc2ccc(F)cc2)cc1Cl [TM65-Z, (Z)-N-(4-fluorophenyl)-4-((2-aminomethyl-3-fluoroallyl)oxy)-3-chloro-benzamide trifluoroacetate] | 
8 | 6.3 ± 1.2 nM | NC/C(=C/F)COc1ccc2c(c1)CN(Cc1ccc(Cl)cc1)C2=O [TM33-Z, (Z)-5-((2-aminomethyl-3-fluoroallyl)oxy)-2-(4-chlorobenzyl)isoindolin-1-one] | 
9 | 9.2 ± 1.1 nM | NC/C(=C\F)COc1ccc(C(=O)N2CCC(c3ccccc3)CC2)cc1F [TM48-E, (E)-(4-((2-(aminomethyl)-3-fluoroally)oxy)-3-fluorophenyl)-(4-phenylpiperidin-1-yl)methanone trifluoroacetate] | 
10 | 4.9 ± 0.5 nM | NC/C(=C\F)COc1ccc2c(c1)CN(Cc1ccc(Cl)cc1)C2=O [TM33-E, (E)-5-((2-aminomethyl-3-fluoroallyl)oxy)-2-(4-chlorobenzyl)isoindolin-1-one] | > 10000 nM
11 | 10.4 ± 1.4 nM | NCC(=CF)COc1ccc(C(=O)N2CCc3ccccc3[C@@H]2c2ccccc2)cc1 [TM69, (S)-(4-(2-aminomethyl)-3-fluoroallyloxy)phenyl)-(1-phenyl-3,4-dihydroisoquinol-2(1H)-yl)-methanone trifluoroacetate] | 
12 | 9.9 ± 1.8 nM | NCC(=CF)COc1ccc(C(=O)N2CCc3cc(C(F)(F)F)ccc3C2)cc1 [TM68, (4-(2-aminomethyl-3-fluoroallyloxy)phenyl)-(6-trifluoromethyl-3,4-dihydroisoquinol-2(1H)-yl)-methanone trifluoroacetate] | 
13 | 4.4 ± 0.8 nM | NC/C(=C/F)COc1ccc(C(=O)N[C@H]2CCCc3ccccc32)cc1 [TM63-Z, (Z)-(S)-N-(1,2,3,4-tetrahydro-1-naphthyl)-4-((2-aminomethyl-3-fluoroallyl)oxy)-benzamide trifluoroacetate] | > 10000 nM
14 | 2.4 ± 0.2 nM | NCC(=CF)COc1ccc(C(=O)N2Cc3ccc(Cl)cc3C2)cc1 [TM71, (4-(2-aminomethyl-3-fluoroallyloxy)phenyl)-(5-chloroisoindolin-2-yl)-methanone trifluoroacetate] | 
15 | 1 ± 0.1 nM | NCC(=CF)COc1ccc(-c2ncccn2)cc1 [TM39, 2-(4-(2-pyrimidyl)phenoxymethyl)-3-fluoroallylamine trifluoroacetate] | > 30000 nM
16 | 9.9 ± 1.2 nM | NC/C(=C\F)COc1ccc2c(c1)CCNC2=O [TM26-E, (E)-6-((2-aminomethyl-3-fluoroallyl)oxy)-3,4-dihydroisoquinolin-1(2H)-one trifluoroacetate] | > 10000 nM
17 | 5.3 ± 0.2 nM | NC/C(=C/F)COc1ccc(-c2nc3ccc(Cl)cc3s2)cc1F [TM74-Z, (Z)-2-(4-(6-chloro-benzothiazol-2-yl)-2-fluorophenoxymethyl)-3-fluoroallylamine trifluoroacetate trifluoroacetate] | 
18 | 3.5 ± 0.4 nM | NC/C(=C/F)COc1ccc(-c2nc3ccc(Cl)cc3s2)cc1 [TM41-Z, (Z)-2-(4-(6-chloro-benzothiazol-2-yl)phenoxymethyl)-3-fluoroallylamine trifluoroacetate] | 
19 | 10.6 ± 1.4 nM | NC/C(=C/F)COc1ccc(C(=O)N2CCC(c3ccccc3)CC2)cc1F [TM48-Z, (Z)-(4-((2-(aminomethyl)-3-fluoroallyl)oxy)-3-fluorophenyl)-(4-phenylpiperidin-1-yl)methanone trifluoroacetate] | 
20 | 4.2 ± 0.3 nM | NC/C(=C\F)COc1ccc(C(=O)N2CCc3c(Cl)cccc3C2)cc1F [TM73-E, (E)-(4-((2-aminomethyl-3-fluoroallyl)oxy)-3-fluorophenyl)-(5-chloro-3,4-di-hydroisoquinoline-2(1H)-yl)methanone trifluoroacetate] | 
21 | 9.7 ± 0.9 nM | NC/C(=C/F)COc1ccc(C(=O)N2CCC(c3ccccc3)CC2)cc1 [TM44-Z, (Z)-(4-((2-aminomethyl-3-fluoroallyl)oxy)phenyl)-(4-phenylpiperidine-1-yl) methanone trifluoroacetate] | 
22 | 6.5 ± 0.5 nM | NCC(=CF)COc1ccc(C(=O)N2CCC(c3ccccc3)CC2)cc1F [TM48, (4-((2-aminomethyl-3-fluoroallyl)oxy)-3-fluorophenyl)-(4-phenylpiperidin-1-yl)methanone trifluoroacetate] | 
23 | 3.7 ± 0.3 nM | NC/C(=C/F)COc1ccc(C(=O)N2CCc3c(Cl)cccc3C2)cc1F [TM73-Z, (Z)-(4-((2-aminomethyl-3-fluoroallyl)oxy)-3-fluorophenyl)-(5-chloro-3,4-di-hydroisoquinoline-2(1H)-yl)methanone trifluoroacetate] | 
24 | 3.1 ± 0.5 nM | NC/C(=C\F)COc1ccc(-c2nc3ccc(Cl)cc3s2)cc1 [TM41-E, (E)-2-(4-(6-chloro-benzothiazol-2-yl)phenoxymethyl)-3-fluoroallylamine trifluoroacetate] | 

Row | Compound | IC50 (VAP-1) | IC50 (hERG)
25 | NC/C(=C/F)COc1ccc(C(=O)N2CCc3ccccc3C2)cc1 [TM45-Z, (Z)-(4-((2-aminomethyl-3-fluoroallyl)oxy)phenyl)-(3,4-dihydroiso-quinoline-2(1H)-yl)methanone trifluoroacetate] | 1.1 ± 0.1 nM | > 10000 nM
26 | NC/C(=C\F)COc1ccc(C(=O)N[C@H]2CCCc3ccccc32)cc1 [TM63-E, (E)-(S)-N-(1,2,3,4-tetrahydro-1-naphthyl)-4-(2-aminomethyl-3-fluoroallyl)oxy)-benzamide trifluoroacetate] | 5.7 ± 0.8 nM | > 10000 nM
27 | NCC(=CF)COc1ccc(C(=O)Nc2cccc3ccccc23)cc1 [TM8, 4-((2-(aminomethyl)-3-fluoroallyl)oxy)-N-(naphthyl)benzoamide trifluoroacetate] | 2.2 ± 0.1 nM | 
28 | NCC(=CF)COc1ccc(C(=O)N2CCc3ccccc3C2)cc1F [TM72, (4-((2-aminomethyl-3-fluoroallyl)oxy)-3-fluorophenyl)-(3,4-tetrahydroisoquinoline-2(1H)-yl)methanone trifluoroacetate] | 3.4 ± 0.5 nM | 
